Values of other authors as cited in patent US20250134380A1, “DETECTION AND LOCALIZATION OF DISEASE UTILIZING FLUORESCENCE SPECTRA OF EXOGENOUS FLUOROPHORES” (PREVIEW MEDICAL INC., priority 2022, published 2025).

Tested on: hyperthermia treated tumor
Conditions: animal models; hyperthermia treated vs non-hyperthermia treated tumors

CC1(C)C(/C=C/C=C/C=C/C=C2\N(CCCCS(=O)(=O)O)c3ccc4ccccc4c3C2(C)C)=[N+](CCCCS(=O)(=O)[O-])c2ccc3ccccc3c21 [ICG, Indocyanine green]
ICG uptake in hyperthermia treated tumor relative to non-hyperthermia treated tumors: 1.23 times
